The record followed here is ChEMBL document CHEMBL1147838, “Design, synthesis, and evaluation of phenanthridine derivatives targeting the telomerase RNA/DNA heteroduplex” (Bioorg Med Chem Lett, 2007).

Structures are written as SMILES.

What is called IC50 is the concentration at which inhibition is half-maximal. Low readings indicate greater potency, high ones weaker potency.

The assay is described as follows: Inhibition of telomerase by fluorescence based assay. More on the design: species or system Homo sapiens.
As to `CC[n+]1c(-c2ccccc2)c2cc(NC(=O)CCCC(N)=O)ccc2c2ccc(N)cc21`, it took 68.2 µM to reach half-maximal inhibition (IC50).

`CC[n+]1c(-c2ccccc2)c2cc(NC(=O)CCCC(=O)O)ccc2c2ccc(NC(=O)CCCC(=O)O)cc21`: half-maximal inhibition (IC50) was put at 63.1 µM.

Take `NC(=O)CCCCC[n+]1c(-c2ccccc2)c2cc(N)ccc2c2ccc(N)cc21`: half-maximal inhibition (IC50) required 30.3 µM.

In turn, `CC[n+]1c(-c2ccccc2)c2cc(NC(=O)CCCC(N)=O)ccc2c2ccc(NC(=O)CCCC(N)=O)cc21` gave an IC50 of more than 80 µM.

The molecule `Nc1ccc2c(c1)c(-c1ccccc1)[n+](Cc1ccc(C(=O)O)cc1)c1cc(N)ccc21` showed an IC50 of 27.3 µM.

The molecule `NC(=O)c1ccc(C[n+]2c(-c3ccccc3)c3cc(N)ccc3c3ccc(N)cc32)cc1` registered an IC50 of 2.9 µM.

As for `CC[n+]1c(-c2ccccc2)c2cc(N)ccc2c2ccc(NC(=O)CCCC(=O)O)cc21`, the IC50 is more than 80 µM.

As for `Nc1ccc2c(c1)c(-c1ccccc1)[n+](CCCCCC(=O)O)c1cc(N)ccc21`, half-maximal inhibition (IC50) was put at 23.3 µM.

With `CC[n+]1c(-c2ccccc2)c2cc(N)ccc2c2ccc(NC(=O)CCCC(N)=O)cc21`, the IC50 is 5.6 µM.

The molecule `CC[n+]1c(-c2ccccc2)c2cc(NC(=O)CCCC(=O)O)ccc2c2ccc(N)cc21` displayed an IC50 of more than 80 µM.
